Data reported in patent publication US20230147249A1, “METHODS OF APPLYING A FUMIGANT TO REDUCE FUSARIUM CONTAMINATION” (Taminco BV, priority 2020, published 2023).

Key:
[1] = tested on: Foc TR4 chlamydospores; assay: Efficacy of metam sodium on Foc TR4 chlamydospores in vitro (colony growth on PDA plates); format: cell-based, Fusarium oxysporum f. sp. cubense Tropical Race 4
Procedure: Foc TR4 chlamydospores were extracted from infested soil and incubated with a dilution series of metam sodium for 5 min and 60 min at room temperature. Thereafter, the samples were diluted 10× to get reduction of the treatment and sufficient dilution of chlamydospores to avoid lack of resolution when grown on plate. Aliquots of 100 μl were plated on PDA plates in duplicate and incubated for 3 days at 25° C. Plates were photographed and scored.

[2] = tested on: Cavendish banana plants; assay: Field trial: growth and development of banana plants after metam sodium soil injection at 30 cm and 60 cm; format: in vivo, Cavendish banana (Musa)
Procedure: The analyses described in this example were carried out in the Philippines in a field in which Musa trees (specifically bananas) were to be planted, in the spring (beginning in March). Final determinations were carried out in September of the same year.
(§1) Metam Sodium Application. Metam sodium 510 SL (equivalent to 42% w/w) was applied to soil at the following doses: 0 liters per hectare (L/ha), 750 L/ha, 1500 L/ha, 2250 L/ha, 3000 L/ha.
(§2) Prior to injection, soil was prepared using a rototiller to break the soil structure from 0 cm to 80 cm deep, allowing for the smooth and even injection application by an injection machine. The soil was then leveled and made uniform, and the metam sodium was applied at two depths: 30 cm and 60 cm, using injection methods. The temperature was at a minimum of 10 QC and soil humidity was between 50 and 60% holding capacity, allowing the applied product to transform from metam sodium (liquid) to MITC (gas).
(§3) The application was made using an injection machine wherein the machine lowered shanks and began moving forward such that the shanks lowered to a depth of 60 cm and injectors applied the metam sodium into the soil. When the injection at 60 cm was complete, the process was repeated for the entire field at 30 cm. The treated soil in the field was then sealed using a packer roller (which was part of the injection machinery, located at the back end of the machine), after each application.
Plant Selection and Transplantation. Cavendish banana plants were used for this investigation. In order to avoid plants already contaminated by other soil, all plants were produced in vitro using art-recognized methods. Plants were transplanted into the field 14 days after the final soil reading was taken (21 days after treatment).
Data Gathering. Data were gathered at monthly intervals beginning three months after banana plants were transplanted. A total of three data collection sessions were conducted. Data including the number of leaves, plant height, and girth size were collected.

[3] = tested on: F. oxysporum f. sp. cubense; assay: Panama disease analysis of soil samples after metam sodium soil injection; format: in vivo, Fusarium oxysporum f. sp. cubense Tropical Race 4; conditions: any of the treated groups (750-3000 L/ha); any day post application
Procedure: as §1, §2, §3
Soil Analysis. Soil samples were obtained at 20, 40, and 60 cm before application and every 24 hours beginning 48 hours after application, for seven days.
Plant Pathology Analysis. […]

[4] = 750 L/ha, six months after treatment
[5] = 1500 L/ha, six months after treatment
[6] = 2250 L/ha, six months after treatment
[7] = 3000 L/ha, six months after treatment

## CNC(=S)[S-].[Na+] [metam sodium, sodium N-methyldithiocarbamate]
[1]; 100× dilution, 60 min versus 5 min
  effect of prolonged incubation on number of surviving chlamydospores (growing colonies): more effective in reducing the number of surviving chlamydospores
[1]; dilution of 10×, incubation time 5 minutes
  efficacy on Foc TR4 colony growth: effective
[1]; dilution of 100×, 5 and 60 minutes
  efficacy on Foc TR4 colony growth: less effective
[1]; first test, dilutions from 1000 up to 10×10^6-fold, 60 min
  reduction in viability of Foc TR4 chlamydospores (colony growth): No significant reduction in viability
[1]; in vitro conditions, dependent on high concentrations
  efficacy against Foc TR4 chlamydospores: effective against Foc TR4 chlamydospores
[1]; second test, 10× and 100× dilutions
  efficacy on surviving chlamydospores: (partially) effective
[1]; second test, dilutions of 1000× and more
  number of chlamydospores that survived: did not affect the number of chlamydospores that survived
[2]; 750 L/ha
  effect on average girth size of banana plant: ~1 cm
  increase in average height of banana plant: ~5 cm
[2]; [4]
  effect on plants reaching bagging stage: did not have a meaningful effect
  percent of plants at either shooting or bagging stage: 11%
  percent of plants at shooting stage: 9%
[2]; 1500-3000 L/ha
  increase in average girth size of banana plant: 4-6 cm
  increase in average height of banana plant: 20-23 cm
[2]; [5]
  percent of plants at either shooting or bagging stage: 28%
  percent of plants at shooting stage: 10%
[2]; 1500 to 3000 L/ha, six months after treatment
  percent of plants at bagging stage: 11-19%
[2]; [6]
  percent of plants at either shooting or bagging stage: 27%
  percent of plants at shooting stage: 17%
[2]; [7]
  percent of plants at either shooting or bagging stage: 35%
  percent of plants at shooting stage: 22%
[2]; regardless of dose applied (750-3000 L/ha), versus 0 L/ha
  increase of average number of leaves per banana plant: roughly 1.5 fold
[3]
  Foc TR4 detection in soil: No Foc TR4 was detected
